Here are results for 50 compounds from patent publication US10335401B2, “Non-aromatic heterocyclic derivative having MGAT2 inhibitory activity” (Shionogi & Co., Ltd., priority 2015, dated 2019).

pIC50: −log10 of the molar value.

For this test, the target named is recombinant human MGAT2 (Homo sapiens (Human), UniProt Q3SYC2). The test is described as follows: Measurement of human MGAT2 inhibitory activity. Type of test: biochemical. The conditions noted are these: recombinant human MGAT2 membrane fraction (Sf-9); 2-Oleoylglycerol and Oleoyl-CoA substrates; 1 hour at room temperature; Diolein detected by RapidFire Q-TOF MS. An excerpt: A full-length human MGAT2 gene to which a Flag-tag had been added at the N-terminal was inserted into pFastBac (from Invitrogen). A recombinant baculovirus was produced in accordance with the protocol for a Bac-to-Bac baculovirus expression system (produced by Invitrogen), and Sf-9 cells were infected therewith. The cells were collected and sonicated, and then the membrane fraction was collected through centrifugation.
recombinant human MGAT2, sequence (Q3SYC2 whole entry): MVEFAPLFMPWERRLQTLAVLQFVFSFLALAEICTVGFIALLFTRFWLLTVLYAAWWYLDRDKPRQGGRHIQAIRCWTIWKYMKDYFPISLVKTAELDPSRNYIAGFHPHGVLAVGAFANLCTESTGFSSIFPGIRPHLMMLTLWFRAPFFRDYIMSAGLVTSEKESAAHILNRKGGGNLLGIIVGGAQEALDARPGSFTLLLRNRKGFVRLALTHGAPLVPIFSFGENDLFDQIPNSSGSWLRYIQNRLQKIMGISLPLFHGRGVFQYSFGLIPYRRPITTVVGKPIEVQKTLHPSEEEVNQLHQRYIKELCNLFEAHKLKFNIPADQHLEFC
Solutions of the compounds of the present invention in DMSO were each aliquoted into 0.2-μL portions in a 384-well polystyrene microplate produced by Corning Incorporated, and 5 μL of an enzyme solution prepared with an assay buffer (100 mmol/L phosphate buffer (pH 7.4) containing 2 mmol/L DTT) and 5 μL of a substrate solution (100 mmol/L phosphate buffer (pH 7.4), 30 μmol/L 2-Oleoylglycerol, 10 μmol/L Oleoyl-CoA) were added thereto, and the resultant was stirred and centrifuged, and incubated in a moist chamber at room temperature for 1 hour. […] Diolein as a reaction product (P) of 2-Oleoylglycerol as the substrate and an ammonium adduct ion of the IS were detected, and the peak intensity ratio, P/IS, was calculated from the peak heights to evaluate the inhibitory activity. […] The inhibitory activity was calculated from the formula below with TIBCO Spotfire (produced by TIBCO Software Inc.): Inhibitory activity (%)=[1−{Sample−Control(−)}/{Control(+)−Control(−))}]*100 where Sample indicates a peak intensity ratio: P/IS, when the compound of the present invention was added.
The pIC50 is the negative decadic logarithm of the IC50, by convention in mol/L. Take `COc1ccc(C2=C(CNC(C)=O)C(=O)N[C@@](c3ccc(OCCCC(F)(F)F)cc3)(C(F)(F)F)C2)nc1` (racemic) [Compound I-11]: the negative-log IC50 (pIC50) is 6.96.
With `CS(=O)(=O)CC(=O)NCC1=C(c2ccc(C(F)F)cn2)CC(c2cnn(CCCC(F)(F)F)c2)(C(F)(F)F)NC1=O` (racemic) [Compound I-110], the pIC50 is 7.04.
Regarding `Cc1ccc(C2=C(CNS(C)(=O)=O)C(=O)N[C@@](c3ccc(OCCCC(F)(F)F)cc3)(C(F)(F)F)C2)cc1` [Compound I-1], the pIC50 is 7.68.
The same measure for `Cc1ccc(C2=C(CNS(C)(=O)=O)C(=O)N[C@@](c3ccc(OCCCC(F)(F)F)cc3)(C(F)(F)F)C2)nc1` [Compound I-3]: 6.92; for `CC(=O)NCC1=C(c2ccc(C)cn2)C[C@](c2ccc(OCCCC(F)(F)F)cc2)(C(F)(F)F)NC1=O` [Compound I-4]: 7.49; for `Cc1ccc(C2=C(CNS(N)(=O)=O)C(=O)N[C@@](c3ccc(OCCCC(F)(F)F)cc3)(C(F)(F)F)C2)nc1` [Compound I-5]: 6.64.
The same measure for `Cc1ccc(C2=C(CNC(N)=O)C(=O)N[C@@](c3ccc(OCCCC(F)(F)F)cc3)(C(F)(F)F)C2)nc1` [Compound I-6]: 6.92; for `COC(=O)NCC1=C(c2ccc(C)cn2)C[C@](c2ccc(OCCCC(F)(F)F)cc2)(C(F)(F)F)NC1=O` [Compound I-7]: 6.82; for `Cc1ccc(C2=C(CNC(=O)C3CC3)C(=O)N[C@@](c3ccc(OCCCC(F)(F)F)cc3)(C(F)(F)F)C2)nc1` [Compound I-8]: 7.89.
`CC(=O)NCC1=C(c2ccc(CO)cn2)C[C@](c2ccc(OCCCC(F)(F)F)cc2)(C(F)(F)F)NC1=O` [Compound I-9]: the negative logarithm of the IC50 (pIC50) is 7.54.
In the case of `Cc1ccc(C2=C(CNC(=O)CS(C)(=O)=O)C(=O)N[C@@](c3ccc(OCCCC(F)(F)F)cc3)(C(F)(F)F)C2)nc1` [Compound I-10] it was greater than 8.34; in that of `COc1ccc(C2=C(CNC(=O)CS(C)(=O)=O)C(=O)N[C@@](c3ccc(OCCCC(F)(F)F)cc3)(C(F)(F)F)C2)nc1` [Compound I-12], 8.60.
Take `COc1ccc(C2=C(CNC(=O)CC(F)(F)F)C(=O)N[C@@](c3ccc(OCCCC(F)(F)F)cc3)(C(F)(F)F)C2)nc1` [Compound I-13]: the negative logarithm of the IC50 (pIC50) is 8.48.
On to `COc1ccc(C2=C(CNC(=O)C(C)C)C(=O)N[C@@](c3ccc(OCCCC(F)(F)F)cc3)(C(F)(F)F)C2)nc1` [Compound I-14], for which the pIC50 was 8.10.
On to `COc1ccc(C2=C(CNC(=O)C3CCC3)C(=O)N[C@@](c3ccc(OCCCC(F)(F)F)cc3)(C(F)(F)F)C2)nc1` [Compound I-15], for which the pIC50 was 8.00.
For `COc1ccc(C2=C(CNC(=O)CC(C)(C)C)C(=O)N[C@@](c3ccc(OCCCC(F)(F)F)cc3)(C(F)(F)F)C2)nc1` [Compound I-16], the pIC50 is 7.28.
For the compound `COc1ccc(C2=C(CNC(=O)c3ccno3)C(=O)N[C@@](c3ccc(OCCCC(F)(F)F)cc3)(C(F)(F)F)C2)nc1` [Compound I-17], the negative-log IC50 (pIC50) is 8.12.
For `COc1ccc(C2=C(CNS(C)(=O)=O)C(=O)N[C@@](c3ccc(OCCCC(F)(F)F)cc3)(C(F)(F)F)C2)nc1` [Compound I-18], the pIC50 was 6.48.
The same measure for `COc1ccc(C2=C(CNS(=O)(=O)CC(F)(F)F)C(=O)N[C@@](c3ccc(OCCCC(F)(F)F)cc3)(C(F)(F)F)C2)nc1` [Compound I-19]: 6.62; for `COc1ccc(C2=C(CNS(=O)(=O)CC#N)C(=O)N[C@@](c3ccc(OCCCC(F)(F)F)cc3)(C(F)(F)F)C2)nc1` [Compound I-20]: 7.46; for `COc1ccc(C2=C(CNS(=O)(=O)C3CCOCC3)C(=O)N[C@@](c3ccc(OCCCC(F)(F)F)cc3)(C(F)(F)F)C2)nc1` [Compound I-22]: 6.70.
Take `COc1ccc(C2=C(CNS(=O)(=O)c3ccccc3)C(=O)N[C@@](c3ccc(OCCCC(F)(F)F)cc3)(C(F)(F)F)C2)nc1` [Compound I-23]: the negative-log IC50 (pIC50) was 6.12.
Turning to `COc1ccc(C2=C(CNC(=O)C3CC(=O)C3)C(=O)N[C@@](c3ccc(OCCCC(F)(F)F)cc3)(C(F)(F)F)C2)nc1` [Compound I-24], the negative-log IC50 (pIC50) is 7.40.
With `Cc1ccc(C2=C(CNC(=O)CC(F)(F)F)C(=O)N[C@@](c3ccc(OCCCC(F)(F)F)cc3)(C(F)(F)F)C2)nc1` [Compound I-26], the pIC50 is 8.64.
`Cc1ccc(C2=C(CNC(=O)c3ccno3)C(=O)N[C@@](c3ccc(OCCCC(F)(F)F)cc3)(C(F)(F)F)C2)nc1` [Compound I-27]: the pIC50 is 8.66.
As for `Cc1ccc(C2=C(CNS(=O)(=O)CC#N)C(=O)N[C@@](c3ccc(OCCCC(F)(F)F)cc3)(C(F)(F)F)C2)nc1` [Compound I-28], the pIC50 was 7.00.
Turning to `Cc1ccc(C2=C(CNC(=O)C3CS(=O)(=O)C3)C(=O)N[C@@](c3ccc(OCCCC(F)(F)F)cc3)(C(F)(F)F)C2)nc1` [Compound I-29], the negative-log IC50 (pIC50) was 7.74.
The same measure for `Cc1ccc(C2=C(CNC(=O)CC#N)C(=O)N[C@@](c3ccc(OCCCC(F)(F)F)cc3)(C(F)(F)F)C2)nc1` [Compound I-30]: 7.92; for `Cc1ccc(C2=C(CNC(=O)CO)C(=O)N[C@@](c3ccc(OCCCC(F)(F)F)cc3)(C(F)(F)F)C2)nc1` [Compound I-31]: 7.15; for `COc1ccc(C2=C(CNC(=O)NC(C)C)C(=O)N[C@@](c3ccc(OCCCC(F)(F)F)cc3)(C(F)(F)F)C2)nc1` [Compound I-32]: 7.01.
The same measure for `COc1ccc(C2=C(CNC(=O)OC(C)C)C(=O)N[C@@](c3ccc(OCCCC(F)(F)F)cc3)(C(F)(F)F)C2)nc1` [Compound I-33]: 6.47; for `CC(=O)NCC1=C(c2ccc(C(C)C)cn2)C[C@](c2ccc(OCCCC(F)(F)F)cc2)(C(F)(F)F)NC1=O` [Compound I-35]: 7.74; for `COc1ccc(C2=C(CNC(=O)C3COC3)C(=O)N[C@@](c3ccc(OCCCC(F)(F)F)cc3)(C(F)(F)F)C2)nc1` [Compound I-36]: 7.28.
With `COc1ccc(C2=C(CNC(=O)CC#N)C(=O)N[C@@](c3ccc(OCCCC(F)(F)F)cc3)(C(F)(F)F)C2)nc1` [Compound I-37], the pIC50 is 7.55.
As for `COc1ccc(C2=C(CNC(=O)C(C)(C)C#N)C(=O)N[C@@](c3ccc(OCCCC(F)(F)F)cc3)(C(F)(F)F)C2)nc1` [Compound I-38], the pIC50 was 7.77.
In the case of `COc1ccc(C2=C(CNC(=O)C3(C#N)CC3)C(=O)N[C@@](c3ccc(OCCCC(F)(F)F)cc3)(C(F)(F)F)C2)nc1` [Compound I-39], the pIC50 is 7.04.
Consider `COc1ccc(C2=C(CNC(=O)CO)C(=O)N[C@@](c3ccc(OCCCC(F)(F)F)cc3)(C(F)(F)F)C2)nc1` [Compound I-40], for which the negative-log IC50 (pIC50) was 7.37.
With `COc1ccc(C2=C(CNC(=O)C(C)(C)O)C(=O)N[C@@](c3ccc(OCCCC(F)(F)F)cc3)(C(F)(F)F)C2)nc1` [Compound I-41], the pIC50 was 7.12.
With `CC(=O)NCC1=C(c2ccc(C(C)(C)O)cn2)C[C@](c2ccc(OCCCC(F)(F)F)cc2)(C(F)(F)F)NC1=O` [Compound I-42], the pIC50 is 8.00.
The same measure for `CC(C)c1ccc(C2=C(CNC(=O)CS(C)(=O)=O)C(=O)N[C@@](c3ccc(OCCCC(F)(F)F)cc3)(C(F)(F)F)C2)nc1` [Compound I-43]: greater than 9.00; for `CC(C)c1ccc(C2=C(CNC(=O)C3CS(=O)(=O)C3)C(=O)N[C@@](c3ccc(OCCCC(F)(F)F)cc3)(C(F)(F)F)C2)nc1` [Compound I-44]: 8.04; for `CC(C)c1ccc(C2=C(CNC(=O)C(C)(C)C#N)C(=O)N[C@@](c3ccc(OCCCC(F)(F)F)cc3)(C(F)(F)F)C2)nc1` [Compound I-45]: 8.36.
Regarding `COc1ccc(C2=C(CNC(=O)C3CS(=O)(=O)C3)C(=O)N[C@@](c3ccc(OCCCC(F)(F)F)cc3)(C(F)(F)F)C2)nc1` [Compound I-46], the pIC50 is 7.21.
In the case of `CC(C)(O)c1ccc(C2=C(CNC(=O)CS(C)(=O)=O)C(=O)N[C@@](c3ccc(OCCCC(F)(F)F)cc3)(C(F)(F)F)C2)nc1` [Compound I-47] it was 9.14.
The same measure for `CC(C)(O)c1ccc(C2=C(CNC(=O)C3CS(=O)(=O)C3)C(=O)N[C@@](c3ccc(OCCCC(F)(F)F)cc3)(C(F)(F)F)C2)nc1` [Compound I-48]: 8.49; for `CC(=O)NCC1=C(c2ccc(Br)cn2)C[C@](c2ccc(OCCCC(F)(F)F)cc2)(C(F)(F)F)NC1=O` [Compound I-49]: 6.85; for `CC(=O)NCC1=C(c2ccc(C(C)=O)cn2)C[C@](c2ccc(OCCCC(F)(F)F)cc2)(C(F)(F)F)NC1=O` [Compound I-51]: 6.89.
For `CC(C)(C#N)C(=O)NCC1=C(c2ccc(C(C)(C)O)cn2)C[C@](c2ccc(OCCCC(F)(F)F)cc2)(C(F)(F)F)NC1=O` [Compound I-52], the pIC50 was 8.51.
The same measure for `CC(C)c1ccc(C2=C(CNC(=O)C3COC3)C(=O)N[C@@](c3ccc(OCCCC(F)(F)F)cc3)(C(F)(F)F)C2)nc1` [Compound I-53]: 7.96; for `CC(C)c1ccc(C2=C(CNC(=O)CC(=O)OC(C)(C)C)C(=O)N[C@@](c3ccc(OCCCC(F)(F)F)cc3)(C(F)(F)F)C2)nc1` [Compound I-54]: 7.09.
